Measured values as given in ChEMBL document CHEMBL5500384, “New synergistic benzoquinone scaffolds as inhibitors of mycobacterial cytochrome bc1 complex to treat multi-drug resistant tuberculosis” (Eur J Med Chem, 2024).

Key:
[1] = Hepatotoxicity in Albino mouse assessed as change in hepatic artery at 50 to 2000 mg/kg, po measured after 14 days; format: toxicity, organism-based, Liver; details: in vivo, 336 h, dose 50-2000 mg/kg, time 14 day
[2] = Acute toxicity in Albino mouse assessed as mortality at 50 mg/kg, po after 14 days; format: organism-based; details: in vivo, 336 h, time 14 day
[3] = Acute toxicity in Albino mouse assessed as mortality at 2000 mg/kg, po after 2 to 4 hrs; format: organism-based; details: in vivo, time 2-4 hrs
[4] = Cytotoxicity against african green monkey Vero cells assessed as cell viability at 3.125 ug/ml by MTT assay; format: toxicity, cell-based; details: chlorocebus sabaeus, at 3.125 µg/mL, read-out: Activity
[5] = Pulmonary toxicity in Albino mouse assessed as change in bronchi structure at 50 to 2000 mg/kg, po measured after 14 days; format: organism-based; details: in vivo, 336 h, dose 50-2000 mg/kg, time 14 day
[6] = Acute toxicity in Albino mouse assessed as change in eosinophils at 50 to 2000 mg/kg, po measured after 14 days (reference value: 3%); format: organism-based; details: in vivo, 336 h, dose 50-2000 mg/kg, time 14 day
[7] = Acute toxicity in Albino mouse assessed as change in SGPT count at 50 to 2000 mg/kg, po measured after 14 days (reference value: 52 IU/L); format: organism-based; details: in vivo, 336 h, dose 50-2000 mg/kg, time 14 day
[8] = Cytotoxicity against african green monkey Vero cells assessed as cell viability at 6.25 ug/ml by MTT assay; format: toxicity, cell-based; details: chlorocebus sabaeus, at 6.25 µg/mL, read-out: Activity
[9] = Pulmonary toxicity in Albino mouse assessed as appearance of goblet cells at 50 to 2000 mg/kg, po measured after 14 days; format: organism-based; details: in vivo, 336 h, dose 50-2000 mg/kg, time 14 day
[10] = Hepatotoxicity in Albino mouse assessed as change in hepatocytes at 50 to 2000 mg/kg, po measured after 14 days; format: toxicity, organism-based; details: in vivo, 336 h, dose 50-2000 mg/kg, time 14 day
[11] = Renal toxicity in Albino mouse assessed as change in proximal convoluted tubules at 50 to 2000 mg/kg, po measured after 14 days; format: organism-based; details: in vivo, 336 h, dose 50-2000 mg/kg, time 14 day
[12] = Cytotoxicity against african green monkey Vero cells assessed as cell viability at 50 ug/ml by MTT assay; format: toxicity, cell-based; details: chlorocebus sabaeus, at 50 µg/mL, read-out: Activity
[13] = Acute toxicity in Albino mouse assessed as change in RBC count measured per million cells at 50 to 2000 mg/kg, po measured after 14 days (reference value: 9.15 microL); format: organism-based, Erythrocyte; details: in vivo, 336 h, dose 50-2000 mg/kg, time 14 day
[14] = Cytotoxicity against african green monkey Vero cells assessed as cell viability at 100 ug/ml by MTT assay; format: toxicity, cell-based; details: chlorocebus sabaeus, at 100 µg/mL, read-out: Activity
[15] = Renal toxicity in Albino mouse assessed as structural absorbability abnormalities at 50 to 2000 mg/kg, po measured after 14 days; format: organism-based; details: in vivo, 336 h, dose 50-2000 mg/kg, time 14 day
[16] = Hepatotoxicity in Albino mouse assessed as change in portal vein at 50 to 2000 mg/kg, po measured after 14 days; format: toxicity, organism-based; details: in vivo, 336 h, dose 50-2000 mg/kg, time 14 day
[17] = Hepatotoxicity in Albino mouse assessed as change in portal tracks at 50 to 2000 mg/kg, po measured after 14 days; format: toxicity, organism-based; details: in vivo, 336 h, dose 50-2000 mg/kg, time 14 day
[18] = Acute toxicity in Albino mouse assessed as change in lymphocytes at 50 to 2000 mg/kg, po measured after 14 days (reference value: 21%); format: organism-based; details: in vivo, 336 h, dose 50-2000 mg/kg, time 14 day
[19] = Pulmonary toxicity in Albino mouse assessed as change in alveoli structure at 50 to 2000 mg/kg, po measured after 14 days; format: organism-based; details: in vivo, 336 h, dose 50-2000 mg/kg, time 14 day
[20] = Cytotoxicity against african green monkey Vero cells assessed as cell viability at 12.5 ug/ml by MTT assay; format: toxicity, cell-based; details: chlorocebus sabaeus, at 12.5 µg/mL, read-out: Activity
[21] = Pulmonary toxicity in Albino mouse assessed as change in alveolar sacs at 50 to 2000 mg/kg, po measured after 14 days; format: organism-based; details: in vivo, 336 h, dose 50-2000 mg/kg, time 14 day
[22] = Acute toxicity in Albino mouse assessed as change in ESR at 50 to 2000 mg/kg, po measured after 14 days (reference value: 10 millimeter); format: organism-based; details: in vivo, 336 h, dose 50-2000 mg/kg, time 14 day
[23] = Acute toxicity in Albino mouse assessed as change in LDH level at 50 to 2000 mg/kg, po measured after 14 days (reference value: 1052 IU/L); format: organism-based; details: in vivo, 336 h, dose 50-2000 mg/kg, time 14 day
[24] = Acute toxicity in Albino mouse assessed as change in serum creatine level at 50 to 2000 mg/kg, po measured after 14 days (reference value: 0.9 mg/dl); format: organism-based; details: in vivo, 336 h, dose 50-2000 mg/kg, time 14 day
[25] = Renal toxicity in Albino mouse assessed as change in renal tubules at 50 to 2000 mg/kg, po measured after 14 days; format: organism-based; details: in vivo, 336 h, dose 50-2000 mg/kg, time 14 day
[26] = Acute toxicity in Albino mouse assessed as change in hemoglobin level at 50 to 2000 mg/kg, po measured after 14 days (reference value: 12.8 g/dl); format: organism-based; details: in vivo, 336 h, dose 50-2000 mg/kg, time 14 day
[27] = Acute toxicity in Albino mouse assessed as change in total leucocyte count at 50 to 2000 mg/kg, po measured after 14 days (reference value: 7400 mm3); format: organism-based; details: in vivo, 336 h, dose 50-2000 mg/kg, time 14 day
[28] = Acute toxicity in po dosed Albino mouse assessed as mortality after 14 days; format: organism-based; details: in vivo, time 14 day
[29] = Renal toxicity in Albino mouse assessed as change in tubular capillaries at 50 to 2000 mg/kg, po measured after 14 days; format: organism-based; details: in vivo, 336 h, dose 50-2000 mg/kg, time 14 day
[30] = system: Mycobacterium tuberculosis; test: Antitubercular activity against Mycobacterium tuberculosis H37Rv incubated for 5 days by microtiter plate method; format: functional; details: 120 h, time 5 day
[31] = Acute toxicity in Albino mouse assessed as change in serum urea level at 50 to 2000 mg/kg, po measured after 14 days (reference value: 46 mg/dl); format: organism-based; details: in vivo, 336 h, dose 50-2000 mg/kg, time 14 day
[32] = Acute toxicity in Albino mouse assessed as change in ALP level at 50 to 2000 mg/kg, po measured after 14 days (reference value: 28 IU/L); format: organism-based; details: in vivo, 336 h, dose 50-2000 mg/kg, time 14 day
[33] = Renal toxicity in Albino mouse assessed as change in renal corpuscles at 50 to 2000 mg/kg, po measured after 14 days; format: organism-based; details: in vivo, 336 h, dose 50-2000 mg/kg, time 14 day
[34] = Renal toxicity in Albino mouse assessed as change in distal convoluted tubules at 50 to 2000 mg/kg, po measured after 14 days; format: organism-based; details: in vivo, 336 h, dose 50-2000 mg/kg, time 14 day
[35] = Acute toxicity in Albino mouse assessed as change in monocytes at 50 to 2000 mg/kg, po measured after 14 days (reference value: 1%); format: organism-based; details: in vivo, 336 h, dose 50-2000 mg/kg, time 14 day
[36] = Cytotoxicity against african green monkey Vero cells assessed as cell viability at 25 ug/ml by MTT assay; format: toxicity, cell-based; details: chlorocebus sabaeus, at 25 µg/mL, read-out: Activity
[37] = Renal toxicity in Albino mouse assessed as extravasation of RBC at 50 to 2000 mg/kg, po measured after 14 days; format: organism-based, Erythrocyte; details: in vivo, 336 h, dose 50-2000 mg/kg, time 14 day
[38] = Pulmonary toxicity in Albino mouse assessed as appearance of cilia at 50 to 2000 mg/kg, po measured after 14 days; format: organism-based; details: in vivo, 336 h, dose 50-2000 mg/kg, time 14 day
[39] = Renal toxicity in Albino mouse assessed as change in Bowman's capsule at 50 to 2000 mg/kg, po measured after 14 days; format: organism-based; details: in vivo, 336 h, dose 50-2000 mg/kg, time 14 day
[40] = Hepatotoxicity in Albino mouse assessed as change in central vein at 50 to 2000 mg/kg, po measured after 14 days; format: toxicity, organism-based; details: in vivo, 336 h, dose 50-2000 mg/kg, time 14 day
[41] = Acute toxicity in Albino mouse assessed as mortality at 300 mg/kg, po after 5 to 8 hrs; format: organism-based; details: in vivo, time 5-8 hrs
[42] = Acute toxicity in Albino mouse assessed as change in neutrophils at 50 to 2000 mg/kg, po measured after 14 days (reference value: 75%); format: organism-based; details: in vivo, 336 h, dose 50-2000 mg/kg, time 14 day
[43] = Pulmonary toxicity in Albino mouse assessed as change in squamous pneumocytes at 50 to 2000 mg/kg, po measured after 14 days; format: organism-based; details: in vivo, 336 h, dose 50-2000 mg/kg, time 14 day
[44] = Acute toxicity in Albino mouse assessed as change in SGOT count at 50 to 2000 mg/kg, po measured after 14 days (reference value: 42 IU/L); format: organism-based; details: in vivo, 336 h, dose 50-2000 mg/kg, time 14 day
[45] = Hepatotoxicity in Albino mouse assessed as change in bile duct at 50 to 2000 mg/kg, po measured after 14 days; format: toxicity, organism-based, Liver; details: in vivo, 336 h, dose 50-2000 mg/kg, time 14 day

In the case of `NC1=C(Cl)C(=O)c2ccccc2C1=O`, the Activity [1] is reported as “Non-Toxic”, the Activity [2] is reported as “Non-Toxic” and the Activity [3] is reported as “Toxic”. For the same compound, the viability at 3.125 ug/ml [4] was 60%, the Activity [5] was “Non-Toxic” and the Activity [6] was 5%. The Activity [7] was 26 IU/L, the viability at 6.25 ug/ml [8] was 55% and the Activity [9] was “Non-Toxic”. The Activity [10] was “Non-Toxic”, the Activity [11] was “Non-Toxic” and the viability at 50 ug/ml [12] was 9.3%. For the same compound, the Activity [13] was 4.53 10^6 cells/µL, the viability at 100 ug/ml [14] was 3.1% and the Activity [15] was “Non-Toxic”. For the same compound, the Activity [16] was “Non-Toxic”, the Activity [17] was “Non-Toxic” and the Activity [18] was 36%. The Activity [19] was “Non-Toxic”, the viability at 12.5 ug/ml [20] was 31% and the Activity [21] was “Non-Toxic”. For the same compound, the Activity [22] was 16 millimeter/hr, the Activity [23] was 1519 IU/L and the Activity [24] was 0.9 mg/dL. For the same compound, the Activity [25] was “Non-Toxic”, the Activity [26] was 13.6 g/dL and the Activity [27] was 3900 cells/mm3. The LD50 at 336 h [28] was 50 mg/kg, the Activity [29] was “Non-Toxic” and the MIC [30] was 15.1 µM. For the same compound, the Activity [31] was 68 mg/dL, the Activity [32] was 40 IU/L and the Activity [33] was “Non-Toxic”. For the same compound, the Activity [34] was “Non-Toxic”, the Activity [35] was 1% and the viability at 25 ug/ml [36] was 18%. For the same compound, the Activity [37] was “Non-Toxic”, the Activity [38] was “Non-Toxic” and the Activity [39] was “Non-Toxic”. The Activity [40] was “Non-Toxic”, the Activity [41] was “Toxic” and the Activity [42] was 58%. The Activity [43] was “Non-Toxic”, the Activity [44] was 34 IU/L and the Activity [45] was “Non-Toxic”.

Compound `O=C1C(Cl)=C(/N=C/c2ccc([N+](=O)[O-])cc2)C(=O)c2ccccc21` has an MIC [30] of 12.5 mg/L.

In the case of `CO[C@H]1/C=C/O[C@@]2(C)Oc3c(C)c(O)c4c(O)c(c(/C=N/N5CCN(C)CC5)c(O)c4c3C2=O)NC(=O)/C(C)=C\C=C\[C@H](C)[C@H](O)[C@@H](C)[C@@H](O)[C@@H](C)[C@H](OC(C)=O)[C@@H]1C` [RIFAMPIN], the MIC [30] is reported as 0.3 µM.
